Measurements published in paper PMC5730604.
Where two headings read alike, the source gives them in different places. One block for each compound: values may come before it. Positions of bridges follow the written chain, without caps; N, C: chain ends. Non-standard residues stand in square brackets, D forms with d. Residues, ends and D or L forms follow the SMILES beside them. Chains are numbered I, II in the order given. *: point of attachment. PEG28 = NCCOCCOCCOCCOCCOCCOCCOCCOCCOCCOCCOCCOCCOCCOCCOCCOCCOCCOCCOCCOCCOCCOCCOCCOCCOCCOCCOCCOCCC(=O)O; Tyr(3-NO2) = N[C@@H](Cc1ccc(O)c([N+](=O)[O-])c1)C(=O)O; Biotin = O=C1N[C@H]2[C@H](CS[C@H]2CCCCC(=O)*)N1; Hyp = O=C(O)[C@@H]1C[C@@H](O)CN1; For = O=C*

Columns and labels:
integrin α3 = molecular target: T1, integrin α3 (Homo sapiens, UniProt P26006); test: Displacement of anti-CD49c-PE conjugate (flow cytometry); type: binding; conditions: increasing peptide concentrations, 2 mM MnCl2, 30 min on ice, flow cytometry (PE channel)
T1 construct: endogenous in cells
T1 sequence (P26006 33-872 limits assumed): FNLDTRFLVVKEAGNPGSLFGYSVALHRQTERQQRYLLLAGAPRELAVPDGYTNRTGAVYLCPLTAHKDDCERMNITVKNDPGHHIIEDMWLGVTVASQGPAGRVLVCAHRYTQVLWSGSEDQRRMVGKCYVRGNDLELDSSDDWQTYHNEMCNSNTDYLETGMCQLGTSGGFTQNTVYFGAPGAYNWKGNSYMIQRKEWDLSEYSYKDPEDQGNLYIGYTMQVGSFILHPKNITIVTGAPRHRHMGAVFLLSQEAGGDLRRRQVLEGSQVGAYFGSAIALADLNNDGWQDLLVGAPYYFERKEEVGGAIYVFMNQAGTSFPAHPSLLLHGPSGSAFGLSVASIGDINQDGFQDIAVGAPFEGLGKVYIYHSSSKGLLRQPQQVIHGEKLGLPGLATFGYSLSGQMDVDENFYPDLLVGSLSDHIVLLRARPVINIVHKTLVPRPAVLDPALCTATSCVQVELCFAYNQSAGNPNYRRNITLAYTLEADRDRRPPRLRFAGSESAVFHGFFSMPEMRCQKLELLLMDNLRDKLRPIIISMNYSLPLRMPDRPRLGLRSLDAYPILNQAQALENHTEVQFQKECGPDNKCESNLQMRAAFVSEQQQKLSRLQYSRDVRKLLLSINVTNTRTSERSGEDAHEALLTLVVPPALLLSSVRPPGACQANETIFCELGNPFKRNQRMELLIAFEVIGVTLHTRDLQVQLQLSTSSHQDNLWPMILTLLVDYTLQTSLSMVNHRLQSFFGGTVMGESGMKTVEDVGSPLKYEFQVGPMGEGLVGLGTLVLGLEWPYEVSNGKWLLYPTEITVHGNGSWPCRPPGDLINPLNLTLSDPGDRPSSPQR
T1 sequence (P26006 876-1051 partner limits assumed): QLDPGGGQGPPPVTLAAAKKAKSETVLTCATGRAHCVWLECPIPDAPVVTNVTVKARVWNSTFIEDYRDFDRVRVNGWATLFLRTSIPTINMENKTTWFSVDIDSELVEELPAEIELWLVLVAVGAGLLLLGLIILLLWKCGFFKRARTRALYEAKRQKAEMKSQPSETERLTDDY
T1 sequence (P05556 21-798 partner): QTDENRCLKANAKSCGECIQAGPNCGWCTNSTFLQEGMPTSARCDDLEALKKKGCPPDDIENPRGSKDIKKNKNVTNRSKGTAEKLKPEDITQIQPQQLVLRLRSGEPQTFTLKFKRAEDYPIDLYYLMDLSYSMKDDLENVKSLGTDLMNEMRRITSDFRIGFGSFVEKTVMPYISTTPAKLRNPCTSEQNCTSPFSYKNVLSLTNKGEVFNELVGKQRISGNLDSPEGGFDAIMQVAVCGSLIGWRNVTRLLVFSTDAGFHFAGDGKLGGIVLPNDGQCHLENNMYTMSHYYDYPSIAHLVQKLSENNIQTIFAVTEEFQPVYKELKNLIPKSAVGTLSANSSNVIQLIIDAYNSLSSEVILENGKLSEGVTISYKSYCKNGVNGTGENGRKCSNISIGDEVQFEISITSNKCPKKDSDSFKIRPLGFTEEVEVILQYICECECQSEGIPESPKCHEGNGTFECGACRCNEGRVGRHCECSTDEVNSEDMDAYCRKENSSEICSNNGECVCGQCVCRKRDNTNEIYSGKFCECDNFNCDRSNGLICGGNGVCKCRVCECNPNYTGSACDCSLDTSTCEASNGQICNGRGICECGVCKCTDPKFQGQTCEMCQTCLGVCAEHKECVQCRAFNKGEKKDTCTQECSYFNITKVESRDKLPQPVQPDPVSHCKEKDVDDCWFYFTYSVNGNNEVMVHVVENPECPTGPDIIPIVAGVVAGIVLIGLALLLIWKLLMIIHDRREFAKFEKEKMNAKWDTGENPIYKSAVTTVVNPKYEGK

primary lymphocytes = test: Flow cytometry binding to cells; conditions: 1 µM biotinylated peptide; also: key: ++: Strong binding; +: medium binding; +/−: weak binding; −: no binding
primary granulocytes = test: Flow cytometry binding to cells; conditions: 1 µM biotinylated peptide; also: key: ++: Strong binding; +: medium binding; +/−: weak binding; −: no binding
K562 = test: Flow cytometry binding to cells; design: species or system Human; conditions: 1 µM biotinylated peptide; also: key: ++: Strong binding; +: medium binding; +/−: weak binding; −: no binding
HT-29 = test: Flow cytometry binding to cells; design: key: ++: strong binding; +: m edium binding; +/-: weak or heterogeneous binding; -: no binding; conditions: Table S1, human, 1 µM biotinylated peptide, 2 mM MnCl2, on ice
PC-3 or A431 cells = conditions: 37 °C, streptavidin staining, flow cytometry
Experimental: washed as described above and then re-suspended in Eagle’s minimum essential medium
incubated on ice or at 37°C. At different time points after washing 50 µl samples were taken
and added to 50 µl of Streptavidin- PerCP-Cy5.5 (diluted 1:200), incubated on ice f or 15 min,
washed with PBS, and analyzed in PBS with Hoechst solution. Fluorescent signals were
plotted against time between washing and streptavidin addition.
over time after incubation on ice and at 37°C.
labeled streptavidin as described previously f or flow cytometry assays.

E0771 = conditions: Table S1; mouse; flow cytometry, 1 µM biotinylated peptide, 2 mM MnCl2, on ice
Experimental: (§26) from DSMZ or LGC and cultured according to the distributors’ guidelines. Human, murine or
(§27) guinea pig leukocytes or macrophages were isolated and cultured as described below. Cells
(§28) growing in monolayers were detached using trypsin/EDTA and then re- suspended in complete
(§29) culture medium. After washing with washing buffer (W B: 0.9% NaCl, 10 mM Hepes, pH 7.3) at
(§30) 4°C, cells were re-suspended at 2x10^6 cells/ml in peptide blocking b uf f er ( PBB: 0.9% NaCl,
(§31) 10 m M H epes, pH 7.3, 5 m M KCl , 3% BSA, 5% FCS) and incubated for 10 minutes on ice
(§32) concentration in PBB were added to equal volumes of aliquots of 1x10^5 cells, and were
(§33) incubated f or 30 min on ice with repeated shaking to keep the cells in suspension. Except
(§34) three times wit h 1 ml W B, followed by incubation with streptavidin labeled wit h PerCP-Cy5.5
(§35) (BD Biosciences, 200 µg/ml; diluted 1:400 in PBB) for 15 min on ice. After one additional
(§36) wa s h ing step with phosphate- buffered saline (PBS) at 4°C, samples were re-suspended in
(§37) PBS with Hoechst 33258 solution (0.5 µg/ml) and analyzed using a F ACS Canto system ( at
(§38) least 1x10^4 cells per sample were counted). Evaluations were performed using FloJo software. […]
(§39) indicated cases the geometrical mean f luorescence was recorded. […]
(§40) which half-maximum binding intensity was reached (KD) was calculated using Origin 9.0 […]

L-929 = conditions: Table S1; mouse; flow cytometry, 1 µM biotinylated peptide, 2 mM MnCl2, on ice
Experimental: as §26, §27, §28, §29, §30, §31, §32, §33, §34, §35, §36, §37, §38, §39, §40

4T1 = conditions: Table S1; mouse; flow cytometry, 1 µM biotinylated peptide, 2 mM MnCl2, on ice
Experimental: as §26, §27, §28, §29, §30, §31, §32, §33, §34, §35, §36, §37, §38, §39, §40

MDA-MB-231 = test: Flow cytometry binding to cells; design: key: ++: strong binding; +: m edium binding; +/-: weak or heterogeneous binding; -: no binding; conditions: Table S1, human, 1 µM biotinylated peptide, 2 mM MnCl2, on ice
U-87MG = test: Flow cytometry binding to cells; design: key: ++: strong binding; +: m edium binding; +/-: weak or heterogeneous binding; -: no binding; conditions: Table S1, human, 1 µM biotinylated peptide, 2 mM MnCl2, on ice
primary macrophages 7d = test: Flow cytometry binding to cells; conditions: 1 µM biotinylated peptide; also: key: ++: Strong binding; +: medium binding; +/−: weak binding; −: no binding
HUVEC = test: Flow cytometry binding to cells; design: species or system Human; conditions: 1 µM biotinylated peptide
PC-3 = test: Flow cytometry binding to cells; design: species or system Human; key to the marks not given beside the values; conditions: 1 µM biotinylated peptide
A431 = test: Flow cytometry binding to cells; design: species or system Human; key to the marks not given beside the values; conditions: 1 µM biotinylated peptide
HeLa = tested on: HeLa; design: key to the marks not given beside the values; conditions: Table S1; human; flow cytometry, 1 µM biotinylated peptide, 2 mM MnCl2, on ice
primary leukocytes = test: Flow cytometry binding to cells; conditions: 1 µM biotinylated peptide; also: key: ++: Strong binding; +: medium binding; +/−: weak binding; −: no binding
[1] = tested on: primary macrophages 7 days; test: Flow cytometry binding to cells; conditions: 1 µM biotinylated peptide; as to binding to macrophages 7 days: key: ++: strong binding; +: m edium binding; +/-: weak or heterogeneous binding; -: no binding
NIH-3T3 = conditions: mouse, flow cytometry, 1 µM biotinylated peptide
Experimental: as §26, §27, §28, §29, §30, §31, §32, §33, §34, §35, §36, §37
least 1x10^4 cells per sample were counted). Evaluations were performed using FloJo software.
W hole cells were gated i n a FSC/SSC plot and live gating was based on Hoechst exclusion.
After gating out debris, aggregates and dead cells, overlay histograms in the PerCP-Cy5.5
indicated cases the geometrical mean f luorescence was recorded.
For determining binding affinity, a rang e of concentrations of the biotinylated compound was
tested and the f luorescent signals were plotted against concentration. The concentration at
which half-maximum binding intensity was reached (KD) was calculated using Origin 9.0
sof tware and a “one site specif ic binding” fit (y =(Bmax* x) /(KD+x) ).
f luorescent signals were plotted against competitor concentration. The concentration at which

GPC-16 = test: Flow cytometry binding to cells; design: key to the marks not given beside the values; conditions: 1 µM biotinylated peptide
primary monocytes = test: Flow cytometry binding to cells; conditions: 1 µM biotinylated peptide; also: key: ++: Strong binding; +: medium binding; +/−: weak binding; −: no binding
H MC-1 = test: Flow cytometry binding to cells; conditions: Table S1, human, 1 µM biotinylated peptide, 2 mM MnCl2, on ice; also: key: ++: Strong binding; +: medium binding; +/−: weak binding; −: no binding
human granulocytes = test: Oxidative burst (dihydro-rhodamine oxidation) assay; type: cell-based; conditions: compared with the non-PEGylated effector
Experimental: Activation of the oxidative burst (phagocyte NADPH oxidase) was measured using a
dihydrorhodamine (DHR, Molecular Probes) oxidation assay, based on a method described
previously1. In brief, 200 µl samples of human, murine or guinea pig leukocytes (1.25x 106
cells/ml in HHBS + 10 mM Hepes, pH 7.3, 0.3% BSA and 5 mM EDTA) were loaded with DHR
and catalase (Sigma-Aldrich) and cytochalasin B (Sigma-Aldrich) were added. Cells were pre-
incubated at 37°C for 10 min followed by the addition of 50 µl of effector dilutions (5x the
intended concentration) in the same buffer and another 15 min of incubation at 37°C. Phorbol
(§1) 12- m yr ist oyl 13-acetate (P MA , 3 µg/ml) was used as a positive control. All samples were f ixed
(§2) in 1% formaldehyde Hoechst 33258 solution (0.5 µg/ml) was added and cells were k ept on ice
(§3) until analysis using a FACS Canto system. After gating for live cells and granulocytes (human
(§4) cells) or non- lymphocytes (murine cells) in the FSC/SSC plot, rhodamine-positive cells were
(§5) identif ied in a PE/SSC plot, using an unstimulated sample as a reference.
(§6) Human monocytes, after an overnight pre- culture, were incubated f or 6 more hours in 1 ml
(§7) RPMI+10% FCS containing 100 nM F2- 2PEG, 0.1 ng/ml LPS (Sigma- Aldrich), or no stimulus.
(§8) All experiments were performed in duplicates. […]

guinea pigs = test: Immune activation assays (Figure S2C,D); type: cell-based, Guinea pig; conditions: compared with human cells
Experimental: (§9) Human leukocytes were re-suspended in Hank ’s Buffered Saline Solution (HBSS, without
(§10) Ca2+, Mg 2+) with 10 mM Hepes pH 7.3 and 0.3% BSA at 10^7 cells/ml. Cells were pre-warmed
(§11) at 37°C for 20 min. After adding the effector dilutions in the lower compartment of 24-well plates
(§12) (800 µl/well), a Millicell culture plate insert with 5 µm pore size was placed in each well, f ollowed
(§13) by immediate addition of 200 µl (2 million) leuk ocytes. In one well, the cells were added without
(§14) a f ilter insert, allowing determination of the input number. The plate was incubated at 37°C and
(§15) 5% CO2 f or 45 min. 5 mM EDTA solution was added and the plate was incubated f or another
(§16) 10 min at 37 °C. […]
(§17) determined using a Neubauer chamber, or the numbers of transmigrated monocytes ,
(§18) granulocytes and lymphocytes were determined by flow cytometry (discriminating c e ll […]
(§19) 37°C and 5% CO2. Macrophages on the bottom side of the f ilter were counted. […]
(§20) J software, means and standard deviations were calculated and presented as absolute […]
(§21) Activation of the oxidative burst (phagocyte NADPH oxidase) was measured using a […]
(§22) 150 µl were stored at - 80 °C until cytokine levels were measured with commercially available
(§23) ELISA kits (Ready-set-go system, eBiosciences). […]
(§24) were measured and calculated based on the standards included wit hin the ELISA kits and as […]
(§25) analysis. Measured cytok ine levels were normalized to 1 (the average of the two unstimulated

mice = test: Immune activation assays (Figure S2C,D); type: cell-based, Mouse; conditions: compared with human cells
Experimental: as §9, §10, §11, §12, §13, §14, §15, §16, §17, §18, §19, §20, §21, §22, §23, §24, §25

human leukocytes = test: Chemotaxis assay; type: cell-based; conditions: compared with the non-PEGylated effector
Experimental: as §9, §10, §11, §12, §13, §14, §15, §16
Phorbol
as §1, §2, §3, §4, §5, §6, §7, §8

[2] = Table S1, human, 2 mM MnCl2, on ice
[3] = human, 2 mM MnCl2, 30 min on ice, streptavidin-PerCP-Cy5.5
[4] = 2 mM MnCl2, 30 min on ice, streptavidin-PerCP-Cy5.5
[5] = Table S1, mouse, 2 mM MnCl2, on ice
[6] = mouse, 2 mM MnCl2, 30 min on ice, streptavidin-PerCP-Cy5.5

- displacement of anti-CD49c-PE conjugate (integrin α3): competes
Compound: NC(=O)C[C@@H]1NC(=O)[C@@H]2C[C@@H](O)CN2C(=O)CNC(=O)[C@H](Cc2ccc(O)c([N+](=O)[O-])c2)NC(=O)CNC(=O)[C@@H](CC(=O)O)NC(=O)[C@H](N)CSSC[C@H](C(=O)O)NC1=O [B9] (H-[dC][dD]G[Tyr(3-NO2)]G[Hyp]N[dC]-OH; disulfide 1-8)

Compound: CC[C@H](C)[C@H](NC(=O)[C@H](CCSC)NC(=O)CCCC[C@@H]1SC[C@@H]2NC(=O)N[C@@H]21)C(=O)N[C@@H](Cc1ccccc1)C(=O)N[C@@H](CC(C)C)C(=O)NCC(=O)NCC(=O)N[C@@H](CCCCNC(=O)CCOCCOCCOCCOCCOCCOCCOCCOCCOCCOCCOCCOCCOCCOCCOCCOCCOCCOCCOCCOCCOCCOCCOCCOCCOCCOCCOCCOCCNC(=O)[C@H]1CSSC[C@@H](N)C(=O)N[C@H](CC(=O)O)C(=O)NCC(=O)N[C@@H](Cc2ccc(O)c([N+](=O)[O-])c2)C(=O)NCC(=O)N2C[C@H](O)C[C@H]2C(=O)N[C@@H](CC(N)=O)C(=O)N1)C(=O)N[C@@H](CCCCNC(=O)CCOCCOCCOCCOCCOCCOCCOCCOCCOCCOCCOCCOCCOCCOCCOCCOCCOCCOCCOCCOCCOCCOCCOCCOCCOCCOCCOCCOCCNC(=O)[C@H]1CSSC[C@@H](N)C(=O)N[C@H](CC(=O)O)C(=O)NCC(=O)N[C@@H](Cc2ccc(O)c([N+](=O)[O-])c2)C(=O)NCC(=O)N2C[C@H](O)C[C@H]2C(=O)N[C@@H](CC(N)=O)C(=O)N1)C(=O)O [Biotin-Y9] (I: H-[dC][dD]G[Tyr(3-NO2)]G[Hyp]N[dC][PEG28] / II: H-[dC][dD]G[Tyr(3-NO2)]G[Hyp]N[dC][PEG28] / III: Biotin-MIFLGGKK-OH; disulfide I:1-I:8, II:1-II:8; amide I:C-III:7, II:C-III:8)
- binding to fresh lymphocytes (primary lymphocytes; [2]): -
- binding to primary lymphocytes (primary lymphocytes; [3]): −
- binding to fresh granulocytes (primary granulocytes; [2]): -
- binding to primary granulocytes (primary granulocytes; [3]): −
- binding to K562 (K562; [4]): −
- binding to K562 (K562; [2]): -
- binding to HT-29 (HT-29): ++
- t1/2 on cell membranes (PC-3 or A431 cells): at least 15 minutes
- binding to E0771 (E0771): +
- binding to L-929 (L-929): -
- binding to 4T1 (4T1): ++
- binding to MDA-MB-231 (MDA-MB-231): ++
- binding to U-87MG (U-87MG): ++
- binding to macrophages 7d (primary macrophages 7d; [5]): -
- binding to primary macrophages 7d (primary macrophages 7d; [6]): −
- binding to HUVEC (HUVEC; [4]): ++
- binding to HUVEC (HUVEC; [2]): ++
- binding to PC-3 (PC-3; [4]): ++
- binding to PC-3 (PC-3; [2]): ++
- binding to A431 (A431; [4]): ++
- binding to A431 (A431; [2]): ++
- binding to HeLa (HeLa): ++
- binding to leukocytes (primary leukocytes; [5]): -
- binding to primary leukocytes (primary leukocytes; [6]): −
- binding to macrophages 7 days [1, 2]: +/-
- binding to primary macrophages 7 days [1, 3]: +/−
- binding to NIH-3T3 (NIH-3T3; Table S1, 2 mM MnCl2, on ice): +
- binding to NIH-3T3 (NIH-3T3; [4]): +
- binding to GPC-16 (GPC-16; Table S1, guinea pig, 2 mM MnCl2, on ice): ++
- binding to GPC-16 (GPC-16; guinea pig, 2 mM MnCl2, 30 min on ice, streptavidin-PerCP-Cy5.5): ++
- binding to fresh monocytes (primary monocytes; [2]): -
- binding to primary monocytes (primary monocytes; [3]): −
- binding to H MC-1 (H MC-1): -

Compound: CSCC[C@H](NC=O)C(=O)N[C@@H](CC(C)C)C(=O)N[C@@H](Cc1ccccc1)C(=O)NCC(=O)NCC(=O)N[C@@H](CCCCNC(=O)CCOCCOCCOCCOCCOCCOCCOCCOCCOCCOCCOCCOCCOCCOCCOCCOCCOCCOCCOCCOCCOCCOCCOCCOCCOCCOCCOCCOCCN)C(=O)N[C@@H](CCCCNC(=O)CCOCCOCCOCCOCCOCCOCCOCCOCCOCCOCCOCCOCCOCCOCCOCCOCCOCCOCCOCCOCCOCCOCCOCCOCCOCCOCCOCCOCCN)C(=O)O [F1-2PEG] (For-MLFGGK(PEG28)K(PEG28)-OH)
- loss of potency for neutrophil activation (superoxide production) when linked to the PEG chains (human granulocytes): two
- immune activation in guinea pigs (guinea pigs): less potent immune activators
- immune activation in mice (mice): less potent immune activators
- loss of potency to induce chemotaxis when linked to the PEG chains (human leukocytes): two
